Test results from PMC10304470, “Characterization of the Antimicrobial Activities of Trichoplusia ni Cecropin A as a High-Potency Therapeutic against Colistin-Resistant Escherichia coli” (Pharmaceutics, 2023).
Like-named read-outs stand apart in the source and are kept apart here. Ends that are not written are not given here. Peptide text beside a SMILES is read from it.

What was measured:
[1] = tested on: E. coli (KCTC 1682); format: cell-based, Escherichia coli
Description: (§1) E. coli (KCTC 1682) was obtained from the Korean Collection for Type Cultures (KCTC, Jeongeup, Republic of Korea), and Acinetobacter baumannii (KCCM 40203) and Pseudomonas aeruginosa (KCCM 11328) from the Korea Culture Center of Microorganisms (KCCM, Seoul, Republic of Korea). Klebsiella pneumoniae (NCCP 16054), colistin-resistant E. coli NMA 1557 (ColREC 1557), NMS 12 (ColREC 12), and colistin-resistant A. baumannii NMS 1915 (ColRAB 1915), as well as colistin-resistant K. pneumoniae NMS 139 (ColRKP 139), were obtained from the National Institute of Health Multidrug Resistant Bacteria Specialized Pathogen Resources Bank (Osong, Republic of Korea).
(§2) The antibacterial abilities of the peptides (T. ni cecropin, cecropin A, polymyxin B, colistin, and melittin) were determined using the broth dilution method as previously reported. The peptides dissolved at 10 mg/mL in deionized water were serially diluted from 64 μM to 0.5 μM in 96-well plates using Mueller–Hinton (MH) broth, and bacteria cultured to exponential growth were added at 2 × 10^5 cells/mL. The group of bacteria that grew untreated in the broth was set as the positive control, and the uninoculated broth as the negative control. Dissolved peptides are colorless and equal to the OD value of the medium only. After 16 h incubation at 37 °C, the absorbance at 600 nm was measured using a SpectraMAX microplate reader (Molecular Devices, San Jose, CA, USA).

[2] = tested on: colistin-resistant E. coli NMA 1557 (ColREC 1557); format: cell-based, Escherichia coli; conditions: MH broth, 2 × 10^5 cells/mL, 16 h, 37 °C, OD600, >95% killing
Description: as §1, §2

[3] = tested on: colistin-resistant E. coli NMS 12 (ColREC 12); format: cell-based, Escherichia coli; conditions: MH broth, 2 × 10^5 cells/mL, 16 h, 37 °C, OD600, >95% killing
Description: as §1, §2

[4] = tested on: Acinetobacter baumannii (KCCM 40203); format: cell-based
Description: as §1, §2

[5] = tested on: Klebsiella pneumoniae (NCCP 16054); format: cell-based
Description: as §1, §2

[6] = tested on: Pseudomonas aeruginosa (KCCM 11328); format: cell-based
Description: as §1, §2

[7] = tested on: colistin-resistant A. baumannii NMS 1915 (ColRAB 1915); conditions: MH broth, 2 × 10^5 cells/mL, 16 h, 37 °C, OD600, >95% killing
Description: as §1
The peptides dissolved at 10 mg/mL in deionized water were serially diluted from 64 μM to 0.5 μM in 96-well plates using Mueller–Hinton (MH) broth, and bacteria cultured to exponential growth were added at 2 × 10^5 cells/mL. The group of bacteria that grew untreated in the broth was set as the positive control, and the uninoculated broth as the negative control. Dissolved peptides are colorless and equal to the OD value of the medium only. After 16 h incubation at 37 °C, the absorbance at 600 nm was measured using a SpectraMAX microplate reader (Molecular Devices, San Jose, CA, USA).

[8] = tested on: colistin-resistant K. pneumoniae NMS 139 (ColRKP 139); format: cell-based, Klebsiella pneumoniae; conditions: MH broth, 2 × 10^5 cells/mL, 16 h, 37 °C, OD600, >95% killing
Description: as §1, §2

[9] = tested on: all bacterial strains; test: Average MIC over all strains and relative selective index; format: cell-based; conditions: 8 strains; MIC above 64 μM taken as 128 μM
Experimental: as §2

[10] = tested on: L-929 cells; test: Cytotoxicity, WST-8; format: cell-based, mouse; conditions: 24 h; for viability / survival rate: up to 100 μM peptide
Experimental: (§3) Murine macrophage RAW 264.7 cells and mouse fibroblast L-929 cells were used for research and were purchased from the Korea Cell Line Bank (Seoul, Republic of Korea). Both cells were cultured in Dulbecco’s Modified Eagle’s Medium (DMEM; Welgene, Gyeongsan, Republic of Korea) supplemented with 10% fetal bovine serum and 1% antibiotics (penicillin/streptomycin) at 37 °C in the presence of 5% CO2. To measure the cytotoxicities of peptides against RAW 264.7 cells and L-929 cells, both cell lines were seeded at a density of 1 × 10^5 cells/well in a 96-well plate, to which each concentration of peptide solution (from 1.6 μM to 100 μM) was added, followed by incubation for 22 h. Subsequently, WST-8 (Biomax Co., Ltd., Guri, Republic of Korea) was added at 10% volume of the final solution, and the mixture was incubated for an additional 2 h. Absorbance was measured at 450 nm. Percentages were calculated based on untreated cells.

[11] = tested on: RAW 264.7 cells; test: Cytotoxicity, WST-8; format: cell-based, mouse; conditions: 100 μM peptide, 24 h
Experimental: as §3

[12] = tested on: ColREC 12; test: Biofilm inhibition assay, crystal violet; format: cell-based, Escherichia coli; conditions: ColREC 12, 2 μM peptide, 16 h
Experimental: (§4) To quantify the biofilm inhibitory activity of each peptide, ColREC 1557 and ColREC 12 were cultured in Luria–Bertani (LB) broth overnight and then sub-cultured in MH broth. Different concentrations of peptide (from 1 μM to 64 μM) were prepared in 96-well plates using MH broth (containing 0.2% glucose) and incubated with bacteria (2 × 10^5 cells/mL) at 37 °C for 16 h. After incubation, the culture medium was removed and methanol was added as a fixative for 15 min. The completely dried plates were stained for 2 h by adding 100 μL of staining solution (0.1% (w/v) crystal violet in 0.25% (v/v) acetic acid). The residual staining solution was gently rinsed off three times using distilled water. Subsequently, 90% ethanol was used to dissolve the dye, and absorbance was measured at 600 nm. The untreated bacterial group was used as a control to compare biofilm production rates.

[13] = tested on: sheep red blood cells (sRBCs); test: Hemolysis; format: cell-based; conditions: 1 h, 37 °C
Experimental: Sheep red blood cells (sRBCs; KisanBio, Seoul, Republic of Korea) were added to three volumes of phosphate-buffered saline (PBS; 35 mM phosphate buffer containing 150 mM NaCl, pH 7.4) and centrifuged five times at 4 °C, 1000× g for 5 min, followed by a final suspension in PBS at 4% (w/v). Peptides serially diluted from 100 μM to 3.1 μM in PBS at 100 μL in a 96-well plate were prepared, and an equal volume of blood solution was added. After incubation at 37 °C for 1 h, the plates were centrifuged for 5 min at 4 °C, 1000× g. The absorbance of the supernatant was measured at 405 nm. The 100% hemolysis control was 0.1% Triton-X 100 added to the blood solution; the negative control was blood solution added to PBS.

[14] = tested on: ColREC 1557; format: cell-based, Escherichia coli; conditions: 16 h, crystal violet
Experimental: as §4

[15] = biological target: T1, TLR4/MD-2 complex (Homo sapiens, UniProt O00206+Q9Y6Y9); test: Surface plasmon resonance (SPR); format: binding; conditions: Biacore T200, CM5 chip, PBS with 0.05% Tween 20, 25 °C, read-out: equilibrium constant (KD) for TLR4/MD2
T1 construct: purchased R&D Systems
Experimental: Binding affinity measurements of the peptide to TLR4/myeloid differentiation factor 2 (MD-2) protein (R&D Systems) were performed on a Biacore T200 instrument (GE Healthcare, Danderyd, Sweden). The receptor was covalently bound to the carboxymethylated sensor chip surface using standard NHS/EDC coupling procedures. The sensor chip (Sensor Chip CM5; Cytiva, MA, USA) was loaded with 30 μg/mL of protein in sodium acetate buffer (pH 4.0) to a resonance value of 2500. Measurements were performed at a flow rate of 30 μL/min with increasing concentrations of peptide dissolved in PBS containing 0.05% Tween 20 at 25 °C. Analysis was performed using Biacore T200 Evaluation Software 3.0 (GE Healthcare, Chicago, IL, USA).

[16] = Limulus amebocyte lysate (LAL) assay, LPS neutralization; format: biochemical; conditions: LPS 2 ng/mL, 10 min, 37 °C
Experimental: To investigate the LPS-neutralizing activity, LAL assays were performed according to the protocol provided in the LAL assay kit (ToxinSensor™ Chromogenic LAL Endotoxin Assay Kit; GenScript, Piscataway, NJ, USA). Briefly, peptides diluted from 50 μM to 1.6 μM in LAL reagent water were incubated with LPS (2 ng/mL) for 10 min at 37 °C. LAL enzyme was then added and incubated under the same conditions. Substrate was added to react, after which three kinds of stop solutions were added in order. Absorbance (545 nm) was measured and quantified using an endotoxin standard graph.

[17] = E. coli, MH broth, 2 × 10^5 cells/mL, 16 h, 37 °C, OD600, >95% killing
[18] = A. baumannii, MH broth, 2 × 10^5 cells/mL, 16 h, 37 °C, OD600, >95% killing
[19] = K. pneumoniae, MH broth, 2 × 10^5 cells/mL, 16 h, 37 °C, OD600, >95% killing
[20] = P. aeruginosa, MH broth, 2 × 10^5 cells/mL, 16 h, 37 °C, OD600, >95% killing

T1 sequence (O00206 24-631 limits assumed): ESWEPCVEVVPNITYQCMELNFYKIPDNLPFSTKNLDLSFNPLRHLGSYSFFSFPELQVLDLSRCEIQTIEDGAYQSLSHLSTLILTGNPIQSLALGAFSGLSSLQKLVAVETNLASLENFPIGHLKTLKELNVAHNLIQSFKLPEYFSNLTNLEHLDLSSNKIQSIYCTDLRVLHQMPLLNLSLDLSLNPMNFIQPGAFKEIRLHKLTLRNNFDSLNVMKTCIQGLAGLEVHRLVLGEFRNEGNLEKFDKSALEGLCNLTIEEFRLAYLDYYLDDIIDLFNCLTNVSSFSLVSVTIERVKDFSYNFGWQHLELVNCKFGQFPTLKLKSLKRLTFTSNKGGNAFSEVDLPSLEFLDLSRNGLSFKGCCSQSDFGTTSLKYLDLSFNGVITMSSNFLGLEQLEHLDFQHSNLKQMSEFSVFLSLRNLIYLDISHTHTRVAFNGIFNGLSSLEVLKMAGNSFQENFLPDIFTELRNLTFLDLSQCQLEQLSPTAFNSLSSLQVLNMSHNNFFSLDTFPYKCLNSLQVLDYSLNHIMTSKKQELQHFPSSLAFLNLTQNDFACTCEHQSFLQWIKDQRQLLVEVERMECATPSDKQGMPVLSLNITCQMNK
T1 sequence (Q9Y6Y9 17-160 limits assumed): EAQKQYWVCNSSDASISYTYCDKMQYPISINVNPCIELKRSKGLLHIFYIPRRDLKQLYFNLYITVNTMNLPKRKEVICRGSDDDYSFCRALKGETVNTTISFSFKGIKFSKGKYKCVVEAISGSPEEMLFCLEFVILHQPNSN

Row | Molecule | Minimal Inhibitory Concentration [2] | Minimal Inhibitory Concentration [3] | Minimal Inhibitory Concentration [7] | Minimal Inhibitory Concentration [8] | GM (geometric mean, average MIC value of all bacterial strains) [9] | viability / survival rate [10] | cell viability [11] | Minimal Inhibitory Concentration [1, 17] | Minimal Inhibitory Concentration [4, 18] | Minimal Inhibitory Concentration [5, 19] | Minimal Inhibitory Concentration [6, 20] | inhibition of biofilm formation [12] | also measured
1 | CC[C@H](C)CCCCC(=O)N[C@@H](CCN)C(=O)N[C@H](C(=O)N[C@@H](CCN)C(=O)N[C@H]1CCNC(=O)[C@H]([C@@H](C)O)NC(=O)[C@H](CCN)NC(=O)[C@H](CCN)NC(=O)[C@H](CC(C)C)NC(=O)[C@@H](Cc2ccccc2)NC(=O)[C@H](CCN)NC1=O)[C@@H](C)O [polymyxin B] (HELM PEPTIDE1{[CC[C@H](C)CCCCC(=O)[*:2]].[Dab].T.[Dab].[Dab].[Dab].[dF].L.[Dab].[Dab].T}$PEPTIDE1,PEPTIDE1,5:R3-11:R2$$$V2.0; N-terminus assumed; bridges inferred) | 8 µM | 4 µM | 64 µM | 64 µM | 17.88 µM | 96.0% | 31.3% |  |  |  |  |  | Minimal Inhibitory Concentration ([1]; KCTC 1682, 16 h): 0.25 µM; Minimal Inhibitory Concentration ([4]; KCCM 40203, 16 h): 0.5 µM; Minimal Inhibitory Concentration ([5]; NCCP 16054, 16 h): 0.25 µM; Minimal Inhibitory Concentration ([6]; KCCM 11328, 16 h): 2 µM
2 | KWKLFKKIEKVGQNIRDGIIKAGPAVAVVGQATQIAK-NH2 [cecropin A] | 1 µM | 1 µM | 1 µM | 2 µM | 2.25 µM |  |  | 2 µM | 2 µM | 1 µM | 8 µM | 80.8% | 
3 | CC[C@H](C)[C@H](NC(=O)CN)C(=O)NCC(=O)N[C@@H](C)C(=O)N[C@H](C(=O)N[C@@H](CC(C)C)C(=O)N[C@@H](CCCCN)C(=O)N[C@H](C(=O)N[C@@H](CC(C)C)C(=O)N[C@H](C(=O)N[C@H](C(=O)NCC(=O)N[C@@H](CC(C)C)C(=O)N1CCC[C@H]1C(=O)N[C@@H](C)C(=O)N[C@@H](CC(C)C)C(=O)N[C@H](C(=O)N[C@@H](CO)C(=O)N[C@@H](Cc1c[nH]c2ccccc12)C(=O)N[C@H](C(=O)N[C@@H](CCCCN)C(=O)N[C@@H](CCCNC(=N)N)C(=O)N[C@@H](CCCCN)C(=O)N[C@@H](CCCNC(=N)N)C(=O)N[C@@H](CCC(N)=O)C(=O)N[C@@H](CCC(N)=O)C(N)=O)[C@@H](C)CC)[C@@H](C)CC)[C@@H](C)O)[C@@H](C)O)C(C)C)C(C)C [melittin] | 2 µM | 2 µM | 2 µM | 32 µM |  |  |  |  | 4 µM | 32 µM |  |  | hemolytic activity ([13]; 3.1 μM peptide): 8.2%; hemolytic activity ([13]; 12.5 μM peptide): 84.3%; survival rate ([10]; 1.6 μM peptide): below 5%
4 | RWKFFKKIEKVGQNIRDGIIKAGPAVAVVGQAASITGK-NH2 [T. ni cecropin] | 1 µM | 1 µM | 1 µM | 2 µM | 1.63 µM | 95% | 93.6% | 2 µM | 1 µM | 1 µM | 4 µM | 82.5% | hemolytic activity ([13]; 100 μM peptide): no hemolytic activity; inhibition of biofilm formation ([14]; ColREC 1557, 2 μM peptide): 75.3%; inhibition of biofilm formation ([14]; ColREC 1557, 4 μM peptide): over 90%; Kd [15]: 558 nM
5 | LL-37 |  |  |  |  |  |  |  |  |  |  |  |  | peptide concentration nearly neutralizing 10 enzyme units (EU) of LPS [16]: 12.5 µM
